Measured values from ChEMBL document CHEMBL4483862, “Open-source discovery of chemical leads for next-generation chemoprotective antimalarials” (2018).

Test system: Plasmodium berghei
Experiment: Luciferase/luciferin-expressing antifolate-resistant parasites were used to infect a culture of HepG2 cells that were pre-incubated with compounds. Infected hepatocytes emit light due to the luciferase reaction. Assay results are presented as the percent inhibition of light emission compared to control. […]
Type: functional
Details: sporozoite; for IC90: read-out: LUCIFERASE INFECTION ASSAY - IC90

Clc1nc(-c2ccccn2)nc2scc(-c3ccccc3)c12
IC50 (HEPG2TOX_HILL_SLOPE 0.933, HEPG2TOX_R_SQUARED 0.89, PBLUC_HILL_SLOPE 8.14, PBLUC_R_SQUARED 0.197, read-out: LUCIFERASE INFECTION ASSAY - IC50): 1.28 µM | IC90: 1.68 µM

CN(C)c1ccc(-c2cnc3cnc(-c4ccc(O)cc4)cn23)cc1
IC50 (HEPG2TOX_HILL_SLOPE 0.921, HEPG2TOX_R_SQUARED 0.948, PBLUC_HILL_SLOPE 0.805, PBLUC_R_SQUARED 0.912, read-out: LUCIFERASE INFECTION ASSAY - IC50): 0.115 µM | IC90: 1.76 µM

Cn1ccc2cc(-c3cn4c(-c5cccc(CO)c5)cnc4cn3)ccc21
IC50 (HEPG2TOX_HILL_SLOPE 0.928, HEPG2TOX_R_SQUARED 0.91, PBLUC_HILL_SLOPE 2.22, PBLUC_R_SQUARED 0.697, read-out: LUCIFERASE INFECTION ASSAY - IC50): 0.452 µM | IC90: 1.22 µM

OCCCNc1ccc2ncc(-c3cccc(C(F)(F)F)c3)n2n1
IC50 (HEPG2TOX_HILL_SLOPE 0.946, HEPG2TOX_R_SQUARED 0.925, PBLUC_HILL_SLOPE 15.6, PBLUC_R_SQUARED 0.717, read-out: LUCIFERASE INFECTION ASSAY - IC50): 1.05 µM | IC90: 1.21 µM

CNc1snc(C)c1C(=O)OCc1cc(C(=O)OC)c(C)o1
IC50 (HEPG2TOX_HILL_SLOPE 0.962, HEPG2TOX_R_SQUARED 0.934, PBLUC_HILL_SLOPE 25, PBLUC_R_SQUARED 0.565, read-out: LUCIFERASE INFECTION ASSAY - IC50): 2.2 µM | IC90: 2.41 µM

O=C1Nc2ccc(F)cc2/C1=N/NC(=S)NC1CC2C=CC1C2 (configuration not stated)
IC50 (HEPG2TOX_HILL_SLOPE 0.956, HEPG2TOX_R_SQUARED 0.854, PBLUC_HILL_SLOPE 4.64, PBLUC_R_SQUARED 0.779, read-out: LUCIFERASE INFECTION ASSAY - IC50): 0.86 µM | IC90: 1.38 µM

O=C(NNC(=O)c1ccccc1OCC1CCCO1)c1cc2ccccc2cc1O (configuration not stated)
IC50 (HEPG2TOX_HILL_SLOPE 0.895, HEPG2TOX_R_SQUARED 0.962, PBLUC_HILL_SLOPE 14.5, PBLUC_R_SQUARED 0.545, read-out: LUCIFERASE INFECTION ASSAY - IC50): 3.45 µM | IC90: 4.01 µM

Fc1ccc(NC(=S)N2CCN(c3ncnc4sccc34)CC2)c(F)c1
IC50 (HEPG2TOX_HILL_SLOPE 0.955, HEPG2TOX_R_SQUARED 0.941, PBLUC_HILL_SLOPE 17.3, PBLUC_R_SQUARED 0.219, read-out: LUCIFERASE INFECTION ASSAY - IC50): 2.62 µM | IC90: 2.97 µM

CCOC(=O)c1[nH]c(C)c(C(=O)OCC(=O)Nc2ccc(Cl)cn2)c1C
IC50 (HEPG2TOX_HILL_SLOPE 0.952, HEPG2TOX_R_SQUARED 0.987, PBLUC_HILL_SLOPE 2.41, PBLUC_R_SQUARED 0.555, read-out: LUCIFERASE INFECTION ASSAY - IC50): 1.17 µM | IC90: 2.91 µM

O=C1CCCN1c1ccc(S(=O)(=O)Oc2ccc(Cl)cc2)cc1
IC50 (HEPG2TOX_HILL_SLOPE 0.952, HEPG2TOX_R_SQUARED 0.945, PBLUC_HILL_SLOPE 2.14, PBLUC_R_SQUARED 0.73, read-out: LUCIFERASE INFECTION ASSAY - IC50): 1.04 µM | IC90: 2.91 µM

CCc1ccc(-n2nnnc2-c2cnc(N)nc2-c2ccccc2)cc1
IC50 (HEPG2TOX_HILL_SLOPE 0.931, HEPG2TOX_R_SQUARED 0.943, PBLUC_HILL_SLOPE 1.76, PBLUC_R_SQUARED 0.648, read-out: LUCIFERASE INFECTION ASSAY - IC50): 0.463 µM | IC90: 1.61 µM

CCOc1cccc(-c2cn3c(-c4ccc(CO)cc4)cnc3cn2)c1
IC50 (HEPG2TOX_HILL_SLOPE 0.91, HEPG2TOX_R_SQUARED 0.879, PBLUC_HILL_SLOPE 2.96, PBLUC_R_SQUARED 0.698, read-out: LUCIFERASE INFECTION ASSAY - IC50): 0.395 µM | IC90: 0.828 µM

CCOc1ccc(C(=O)CN(C#N)C(=O)c2ccccc2)cc1
IC50 (HEPG2TOX_HILL_SLOPE 0.95, HEPG2TOX_R_SQUARED 0.917, PBLUC_HILL_SLOPE 159, PBLUC_R_SQUARED 0.609, read-out: LUCIFERASE INFECTION ASSAY - IC50): 0.747 µM | IC90: 0.758 µM

CC(C)Cn1c(N)c(C(=O)CSc2nc(=O)c3c4c(sc3[nH]2)CCCC4)c(=O)n(C)c1=O
IC50 (HEPG2TOX_HILL_SLOPE 0.911, HEPG2TOX_R_SQUARED 0.885, PBLUC_HILL_SLOPE 2, PBLUC_R_SQUARED 0.249, read-out: LUCIFERASE INFECTION ASSAY - IC50): 5.58 µM | IC90: > 10 µM

CC(C)c1cc(C(=O)Nc2nnc3ccccn23)c2cnn(C(C)C)c2n1
IC50 (HEPG2TOX_HILL_SLOPE 0.96, HEPG2TOX_R_SQUARED 0.828, PBLUC_HILL_SLOPE 9.22, PBLUC_R_SQUARED 0.235, read-out: LUCIFERASE INFECTION ASSAY - IC50): 3.4 µM | IC90: 4.31 µM

CC1CCC2(CC1)NC(=O)N(Cc1ccc(C(=O)Nc3ccccc3)cc1)C2=O (configuration not stated)
IC50 (HEPG2TOX_HILL_SLOPE 0.925, HEPG2TOX_R_SQUARED 0.33, PBLUC_HILL_SLOPE 1.44, PBLUC_R_SQUARED 0.482, read-out: LUCIFERASE INFECTION ASSAY - IC50): 2.56 µM | IC90: > 10 µM

N#Cc1c(Cl)cccc1N1CCC(C#N)CC1
IC50 (HEPG2TOX_HILL_SLOPE 0.959, HEPG2TOX_R_SQUARED 0.904, PBLUC_HILL_SLOPE 1.25, PBLUC_R_SQUARED 0.0637, read-out: LUCIFERASE INFECTION ASSAY - IC50): 6.33 µM | IC90: > 13.4 µM

COc1ccc2[nH]c(C(=O)Nc3ccc(F)cc3)c(C)c2c1
IC50 (HEPG2TOX_HILL_SLOPE 0.946, HEPG2TOX_R_SQUARED 0.313, PBLUC_HILL_SLOPE 15.5, PBLUC_R_SQUARED 0.583, read-out: LUCIFERASE INFECTION ASSAY - IC50): 3.72 µM | IC90: 4.28 µM

Cc1ccc(O)c(C(=O)c2cnc3cc4c(cc3c2)OCCO4)c1
IC50 (HEPG2TOX_HILL_SLOPE 0.914, HEPG2TOX_R_SQUARED 0.945, PBLUC_HILL_SLOPE 1.42, PBLUC_R_SQUARED 0.804, read-out: LUCIFERASE INFECTION ASSAY - IC50): 0.172 µM | IC90: 0.81 µM

Cc1cc(C(=O)C(C)OC(=O)c2ccc(S(=O)(=O)NCc3ccco3)cc2)c(C)n1-c1ccc(Cl)cc1 (configuration not stated)
IC50 (HEPG2TOX_HILL_SLOPE 0.938, HEPG2TOX_R_SQUARED 0.54, PBLUC_HILL_SLOPE 4.63, PBLUC_R_SQUARED 0.33, read-out: LUCIFERASE INFECTION ASSAY - IC50): 7.49 µM | IC90: > 10 µM

O=S(=O)(NCCNc1ncnc2ccccc12)c1cccc(Cl)c1
IC50 (HEPG2TOX_HILL_SLOPE 0.939, HEPG2TOX_R_SQUARED 0.791, read-out: LUCIFERASE INFECTION ASSAY - IC50): > 10 µM | IC90: > 10 µM

CCN(CC)S(=O)(=O)c1cccc(-c2nnc(SCc3nc(=O)c4cccc(C)c4[nH]3)n2CC(C)C)c1
IC50 (HEPG2TOX_HILL_SLOPE 0.901, HEPG2TOX_R_SQUARED 0.0979, read-out: LUCIFERASE INFECTION ASSAY - IC50): > 10 µM | IC90: > 10 µM

CCOc1ccc(CN(C)CC(=O)NCCc2ccc(S(N)(=O)=O)cc2)cc1
IC50 (HEPG2TOX_HILL_SLOPE 0.961, HEPG2TOX_R_SQUARED 0.961, PBLUC_HILL_SLOPE 1.57, PBLUC_R_SQUARED 0.525, read-out: LUCIFERASE INFECTION ASSAY - IC50): 3.65 µM | IC90: > 10 µM

C=CCN(c1ccccc1)S(=O)(=O)c1cc(C(=O)NCC2(N3CCCCC3)CCCCC2)ccc1Cl
IC50 (HEPG2TOX_HILL_SLOPE 0.94, HEPG2TOX_R_SQUARED 0.4, PBLUC_HILL_SLOPE 1.67, PBLUC_R_SQUARED 0.0797, read-out: LUCIFERASE INFECTION ASSAY - IC50): 5.22 µM | IC90: > 10 µM

CN(C)c1ccccc1-c1cnc2sc(NCCc3ccncc3)nn12
IC50 (HEPG2TOX_HILL_SLOPE 0.921, HEPG2TOX_R_SQUARED 0.497, read-out: LUCIFERASE INFECTION ASSAY - IC50): > 9.05 µM | IC90: > 9.05 µM

Cc1cc(C=C2Sc3ccccc3N2C)cc(C)[n+]1C(C)C1CC2CCC1C2 (configuration not stated)
IC50 (HEPG2TOX_HILL_SLOPE 0.905, HEPG2TOX_R_SQUARED 0.888, PBLUC_HILL_SLOPE 1.95, PBLUC_R_SQUARED 0.822, read-out: LUCIFERASE INFECTION ASSAY - IC50): 0.19 µM | IC90: 0.589 µM

CC(=O)c1ccccc1OCCOC(=O)/C(C#N)=C/c1cc(C)n(CCC(C)C)c1C
IC50 (HEPG2TOX_HILL_SLOPE 0.948, HEPG2TOX_R_SQUARED 0.676, PBLUC_HILL_SLOPE 14.8, PBLUC_R_SQUARED 0.615, read-out: LUCIFERASE INFECTION ASSAY - IC50): 1.48 µM | IC90: 1.72 µM

CN(C)c1nc2cc(C(=O)Nc3ccccc3OC(F)F)sc2n1-c1ccccc1
IC50 (HEPG2TOX_HILL_SLOPE 0.955, HEPG2TOX_R_SQUARED 0.898, PBLUC_HILL_SLOPE 1.96, PBLUC_R_SQUARED 0.521, read-out: LUCIFERASE INFECTION ASSAY - IC50): 0.803 µM | IC90: 2.47 µM

CC(=O)Nc1ccc(Nc2nc3cc(S(=O)(=O)Nc4cccc(Cl)c4)ccc3o2)cc1
IC50 (HEPG2TOX_HILL_SLOPE 0.957, HEPG2TOX_R_SQUARED 0.862, PBLUC_HILL_SLOPE 2.24, PBLUC_R_SQUARED 0.74, read-out: LUCIFERASE INFECTION ASSAY - IC50): 3.74 µM | IC90: 9.97 µM

C1=C(c2c[nH]c3ncccc23)CCN(c2ncnc3n[nH]cc23)C1
IC50 (HEPG2TOX_HILL_SLOPE 0.924, HEPG2TOX_R_SQUARED 0.995, PBLUC_HILL_SLOPE 2.5, PBLUC_R_SQUARED 0.123, read-out: LUCIFERASE INFECTION ASSAY - IC50): 7.5 µM | IC90: > 10 µM

O=C(Nc1nc2ccccn2c1C(=O)NC1CCCC1)c1ccc(Cl)cc1
IC50 (HEPG2TOX_HILL_SLOPE 0.927, HEPG2TOX_R_SQUARED 0.795, PBLUC_HILL_SLOPE 2.2, PBLUC_R_SQUARED 0.668, read-out: LUCIFERASE INFECTION ASSAY - IC50): 0.447 µM | IC90: 1.21 µM
